Assay results as given in patent US20100069632A1, “SALTS OF PYRROLOPYRIMIDINONE DERIVATIVES AND PROCESS FOR PREPARING THE SAME” (SK CHEMICALS CO., LTD, priority 2006, published 2010).
Where a name gives a salt, the structure may show the parent alone.

Experiments:
[1] = Water and atmospheric (storage) stability: total impurities by liquid chromatography after storage; format: physicochemical; conditions: for Storage stability compared with the SK-3530 dihydrochloride salt: summary of Tables 1 to 3
Description: This test is for confirming the storage stability of SK-3530 salt.
A sufficient stability is required to process a drug into a particular medication form. For instance, preparation into tablet or capsule requires atmospheric stability and preparation into injection may require water stability.
The following Table 1 (25° C., 75% humidity), Table 2 (40° C., 60% humidity) and Table 3 (50° C., 75% humidity) show the content of total impurities measured by liquid chromatography after storing dihydrochloride (2HCl), gentisate, maleate, citrate, fumarate and hemitartrate salts of SK-3530 for 1 week and 3 weeks.

[2] = Photostability test (UV and visible light), impurity content and color change; format: physicochemical; conditions: for Color change, Initial / Impurity content (%), Initial: photostability test; for Photostability against UV and visible light compared with the SK-3530 dihydrochloride salt: summary of Tables 4 and 5; for Color change, UV / Impurity content (%), UV: total UV radiation 200 W·h/m^2; for Color change, UV / Impurity content (%), UV / Color change, Visible / Impurity content (%), Visible: 25° C., 60% humidity; for Impurity content (%), UV / Impurity content (%), Visible: Petri dish; for Color change, Visible / Impurity content (%), Visible: total visible light radiation 1080 klux/m^2h
Description: The following Table 4 and Table 5 show the photostability test result for dihydrochloride salt (2HCl), gentisate, maleate, citrate, fumarate and hemitartrate salts of SK-3530. The total ultraviolet (UV) radiation was 200 W·h/m^2 and the total visible light radiation was 1080 klux/m^2h. Each salt was kept on a Petri dish under the condition of 25° C. and 60% humidity.

[3] = Thermal stability test at 105° C., impurity content and color change; format: physicochemical; conditions: for Impurity content (%), 3 hours / Color change, 3 hours / Impurity content (%), 48 hours / Color change, 48 hours: dryer at 105° C.; for Color change, 3 hours / Color change, 48 hours: macroscopic observation; for Thermal stability compared with the SK-3530 dihydrochloride salt: summary of Tables 6 and 7; for Color change, Initial / Impurity content (%), Initial: thermal stability test
Description: The following Table 6 and Table 7 show the thermal stability test result for dihydrochloride salt (2HCl), gentisate, maleate, citrate, fumarate and hemitartrate salts of SK-3530. Each salt was placed on a Petri dish and kept in a dryer at 105° C. Following macroscopic observation at 3 hours and 48 hours later, the content of impurities was measured with liquid chromatography.

Hygroscopicity = format: physicochemical; conditions: statement in words, no test described
PDE-5 = PDE-5 (Homo sapiens, UniProt O76074); conditions: statement in words; cited from earlier work
Solubility = format: physicochemical; conditions: statement in words, no test described

Compound | Impurity content (%) at 25° C., 75% humidity, 1 week [1] [%] | Impurity content (%) at 25° C., 75% humidity, 3 weeks [1] [%] | Impurity content (%) at 25° C., 75% humidity, Initial [1] [%] | Impurity content (%) at 40° C., 60% humidity, 1 week [1] [%] | Impurity content (%) at 40° C., 60% humidity, 3 weeks [1] [%] | Impurity content (%) at 40° C., 60% humidity, Initial [1] [%] | Impurity content (%) at 50° C., 75% humidity, 1 week [1] [%] | Impurity content (%) at 50° C., 75% humidity, 3 weeks [1] [%] | Impurity content (%) at 50° C., 75% humidity, Initial [1] [%] | Color change, Initial [2] | Impurity content (%), Initial [2] [%] | Color change, UV [2] | Impurity content (%), UV [2] [%] | Color change, Visible [2] | Impurity content (%), Visible [2] [%] | Impurity content (%), 3 hours [3] [%] | Color change, 3 hours [3] | Impurity content (%), 48 hours [3] [%] | Color change, 48 hours [3] | Color change, Initial [3] | other results
CCCOc1ccc(S(=O)(=O)N2CCN(CCO)CC2)cc1-c1nc2c(CCC)cn(CC)c2c(=O)[nH]1 [SK-3530 maleate salt] | 0.12 | 0.12 | 0.12 | 0.12 | 0.12 | 0.12 | 0.15 | 0.19 | 0.12 | White | 0.12 | White | 0.35 | White | 0.14 | 0.15 | White | 0.74 | White | White | Storage stability compared with the SK-3530 dihydrochloride salt [1]: much superior; Photostability against UV and visible light compared with the SK-3530 dihydrochloride salt [2]: much superior; Thermal stability compared with the SK-3530 dihydrochloride salt [3]: much superior; Impurity content (%), Initial [3]: 0.12%; Hygroscopicity (Hygroscopicity): non-hygroscopic
CCCOc1ccc(S(=O)(=O)N2CCN(CCO)CC2)cc1-c1nc2c(CCC)cn(CC)c2c(=O)[nH]1 [SK-3530, 5-ethyl-2-{5-[4-(2-hydroxyethyl)piperazin-1-ylsulfonyl]-2-n-propoxyphenyl}-7-n-propyl-I-3,5-dihydro-4H-pyrrolo[3,2-d]pyrimidin-4-one] | – | – | – | – | – | – | – | – | – | – | – | – | – | – | – | – | – | – | – | – | Selectivity for PDE-5 over other PDEs (PDE-5): excellent selective inhibitor
CCCOc1ccc(S(=O)(=O)N2CCN(CCO)CC2)cc1-c1nc2c(CCC)cn(CC)c2c(=O)[nH]1.Cl.Cl [SK-3530 dihydrochloride salt, reference compound] | 0.24 | 0.31 | 0.20 | 0.24 | 0.38 | 0.20 | 0.27 | 0.42 | 0.20 | White | 0.20 | Brown | 5.92 | Yellow | 1.37 | 3.06 | White | 14.37 | Yellow | White | Impurity content (%), Initial [3]: 0.20%; Solubility (Solubility): good solubility; Hygroscopicity (Hygroscopicity): hygroscopic

More lines, main results first:

Impurity content (%) at 25° C., 75% humidity, 1 week [1] [%] | Impurity content (%) at 25° C., 75% humidity, 3 weeks [1] [%] | Impurity content (%) at 25° C., 75% humidity, Initial [1] [%] | Impurity content (%) at 40° C., 60% humidity, 1 week [1] [%] | Impurity content (%) at 40° C., 60% humidity, 3 weeks [1] [%] | Impurity content (%) at 40° C., 60% humidity, Initial [1] [%] | Impurity content (%) at 50° C., 75% humidity, 1 week [1] [%] | Impurity content (%) at 50° C., 75% humidity, 3 weeks [1] [%] | Impurity content (%) at 50° C., 75% humidity, Initial [1] [%] | Color change, Initial [2] | Impurity content (%), Initial [2] [%] | Color change, UV [2] | Impurity content (%), UV [2] [%] | Color change, Visible [2] | Impurity content (%), Visible [2] [%] | Impurity content (%), 3 hours [3] [%] | Color change, 3 hours [3] | Impurity content (%), 48 hours [3] [%] | Color change, 48 hours [3] | Color change, Initial [3] | Compound | other results
0.02 | 0.03 | 0.02 | 0.02 | 0.05 | 0.02 | 0.02 | 0.05 | 0.02 | White | 0.02 | Pale yellow | 0.08 | White | 0.07 | 0.11 | White | 0.61 | White | White | CCCOc1ccc(S(=O)(=O)N2CCN(CCO)CC2)cc1-c1nc2c(CCC)cn(CC)c2c(=O)[nH]1 [SK-3530 fumarate salt] | Storage stability compared with the SK-3530 dihydrochloride salt [1]: much superior; Photostability against UV and visible light compared with the SK-3530 dihydrochloride salt [2]: much superior; Thermal stability compared with the SK-3530 dihydrochloride salt [3]: much superior; Impurity content (%), Initial [3]: 0.02%; Hygroscopicity (Hygroscopicity): non-hygroscopic
0.09 | 0.12 | 0.09 | 0.10 | 0.10 | 0.09 | 0.09 | 0.10 | 0.09 | White | 0.09 | Pale yellow | 0.36 | Pale yellow | 0.17 | 0.09 | White | 0.13 | White | White | CCCOc1ccc(S(=O)(=O)N2CCN(CCO)CC2)cc1-c1nc2c(CCC)cn(CC)c2c(=O)[nH]1 [SK-3530 gentisate salt] | Storage stability compared with the SK-3530 dihydrochloride salt [1]: much superior; Photostability against UV and visible light compared with the SK-3530 dihydrochloride salt [2]: much superior; Thermal stability compared with the SK-3530 dihydrochloride salt [3]: much superior; Impurity content (%), Initial [3]: 0.09%; Hygroscopicity (Hygroscopicity): non-hygroscopic
0.09 | 0.13 | 0.07 | 0.10 | 0.14 | 0.07 | 0.11 | 0.13 | 0.07 | White | 0.07 | White | 0.52 | White | 0.21 | 0.14 | White | 0.70 | White | White | CCCOc1ccc(S(=O)(=O)N2CCN(CCO)CC2)cc1-c1nc2c(CCC)cn(CC)c2c(=O)[nH]1 [SK-3530 hemitartrate salt] | Storage stability compared with the SK-3530 dihydrochloride salt [1]: much superior; Photostability against UV and visible light compared with the SK-3530 dihydrochloride salt [2]: much superior; Thermal stability compared with the SK-3530 dihydrochloride salt [3]: much superior; Impurity content (%), Initial [3]: 0.07%; Hygroscopicity (Hygroscopicity): non-hygroscopic
0.15 | 0.15 | 0.12 | 0.13 | 0.14 | 0.12 | 0.14 | 0.14 | 0.12 | White | 0.12 | White | 0.37 | White | 0.14 | 0.30 | White | 1.81 | White | White | CCCOc1ccc(S(=O)(=O)N2CCN(CCO)CC2)cc1-c1nc2c(CCC)cn(CC)c2c(=O)[nH]1 [SK-3530 citrate salt] | Storage stability compared with the SK-3530 dihydrochloride salt [1]: much superior; Photostability against UV and visible light compared with the SK-3530 dihydrochloride salt [2]: much superior; Thermal stability compared with the SK-3530 dihydrochloride salt [3]: much superior; Impurity content (%), Initial [3]: 0.12%; Hygroscopicity (Hygroscopicity): non-hygroscopic
